Measured values as given in BigSolDB 2.1.

COC(=O)Nc1nc2ccccc2[nH]1
solubility (mole fraction)
Details	278.15 K	283.15 K	288.15 K	293.15 K	298.15 K	303.15 K	308.15 K	313.15 K	318.15 K	323.15 K
in ethanol	6.39e-06	1.05e-05	1.58e-05	2.3e-05	3.19e-05	4.34e-05	5.78e-05	7.66e-05	0.000101	0.000134
in methanol	3.19e-05	4e-05	5.2e-05	6.33e-05	7.77e-05	9.85e-05	0.000118	0.000143	0.000173	0.000201
in n-butanol	2.12e-06	3.75e-06	6.22e-06	9.84e-06	1.5e-05	2.28e-05	3.34e-05	5.07e-05	7.61e-05	0.000111
in n-pentanol	1e-06	2e-06	3.62e-06	6.19e-06	1.05e-05	1.69e-05	2.87e-05	4.55e-05	6.8e-05	0.000101
in n-propanol	3.3e-06	5.42e-06	8.66e-06	1.3e-05	1.89e-05	2.73e-05	3.92e-05	5.57e-05	8.38e-05	0.00012
